What all share (format): cell-based
One test relates to Escherichia coli SOL 90. The test is described as follows: MIC, in vitro dilution method, Escherichia coli SOL 90 (Table III). The settings on record: SOL90; Escherichia coli SOL 90; dilution method; read-out: MIC. Summed up: (§1)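 In vitro dilution method, Gram-negative strain panel; read-out = minimum inhibiting concentration, μg/ml.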
The next test deals with Enterobacter RO 154. The test is described as follows: MIC, in vitro dilution method, Enterobacter RO 154 (Table III). Conditions: RO154; Enterobacter RO 154; dilution method; read-out: MIC. Put shortly: as §1
For another test, the system named is Klebsiella RO 30. The test is described as follows: MIC, in vitro dilution method, Klebsiella RO 30 (Table III). The settings on record: RO30; Klebsiella RO 30; dilution method; read-out: MIC. Put shortly:
as §1

Test [1] has as its system Proteus vulgaris RL 99 bis. The test is described as follows: MIC, in vitro dilution method, Proteus vulgaris RL 99 bis (Table III). The settings on record: RL99BIS; Proteus vulgaris RL 99 bis; dilution method; read-out: MIC. An excerpt: (§2) The products of the invention have been studied as regards their pharmacological properties and, more especially, bacteriostatic action. This has been determined in vitro by the dilution method, and the study was on Gram negative strains.
(§3) Results, expressed in minimum inhibiting concentrations (MIC-- μg/ml), are collected in the following table (Table III).

A further test deals with Serratia RL 72. The test is described as follows: MIC, in vitro dilution method, Serratia RL 72 (Table III). Conditions: RL72.
Description: as §2, §3

A further test has as its system Pseudomonas RL 112. The test is described as follows: MIC, in vitro dilution method, Pseudomonas RL 112 (Table III). Conditions: RL112. Put shortly:
as §1

In the next test the test system is Citrobacter RL 49. The test is described as follows: MIC, in vitro dilution method, Citrobacter RL 49 (Table III). Conditions: RL49; Citrobacter RL 49; dilution method; read-out: MIC.
Description: as §2, §3

The next test relates to Escherichia coli 255. The test is described as follows: MIC on beta-lactamase producing strain Escherichia coli 255 (Table IV). Conditions: Escherichia coli 255, producing beta-lactamases; read-out: MIC. As to the method: (§4) To evaluate the stability of these products towards beta-lactamases, their MIC was determined on isogenic strains producing and not producing beta-lactamases.
(§5) The results are expressed in μg/ml in Table IV.

Test [2] relates to Serrtia liquefaciens SL/326 A. The test is described as follows: MIC on beta-lactamase producing strain Serratia liquefaciens SL/326 A (Table IV). The procedure:
as §4, §5

Test [3] deals with Serrtia liquefaciens SL 1326 S. The test is described as follows: MIC on strain not producing beta-lactamase, Serratia liquefaciens SL 1326 S (Table IV). Conditions: SL1326S, not producing beta-lactamases. The procedure: as §4, §5
In test [4] the test system is Proteus vulgaris GN 76/C.1. The test is described as follows: MIC on beta-lactamase producing strain Proteus vulgaris GN 76/C.1 (Table IV). The settings on record: GN76; Proteus vulgaris GN 76/C.1, producing beta-lactamases; read-out: MIC. As to the method:
as §4, §5

In a further test the test system is Escherichia coli 255/L.7. The test is described as follows: MIC on strain not producing beta-lactamase, Escherichia coli 255/L.7 (Table IV). The settings on record: Escherichia coli 255/L.7 *, not producing beta-lactamases; read-out: MIC. As to the method: as §4, §5

The term MIC denotes the lowest concentration found to suppress growth.

Converted amounts (≈) assume the structure as drawn.

Take `Cc1ccc(C(=O)OCC2=C(C(=O)O)N3C(=O)C(NC(=O)/C(=N\OC(C)(C)C(=O)O)c4csc(N)n4)C3[S+]([O-])C2)cc1CN` (centres unmarked) [42 379]: the minimum inhibitory concentration (MIC) is 0.25 µg/mL (≈ 0.385 µM) in the test with Escherichia coli SOL 90; at most 0.125 µg/mL in the test on Enterobacter RO 154; at most 0.125 µg/mL in the test on Klebsiella RO 30; at most 0.125 µg/mL in test [1]; 0.5 µg/mL (≈ 0.771 µM) in the test with Serratia RL 72; 8 µg/mL (≈ 12.3 µM) with Pseudomonas RL 112. Further, in the test on Citrobacter RL 49, the MIC is at most 0.125 µg/mL.
`CC(C)(O/N=C(\C(=O)NC1C(=O)N2C(C(=O)O)=C(COC(=O)c3cccc(NC(=O)CN)c3)C[S+]([O-])C12)c1csc(N)n1)C(=O)O` (centres unmarked) [42 374]: the MIC was 0.5 µg/mL (≈ 0.738 µM) in the test on Escherichia coli SOL 90; 0.25 µg/mL (≈ 0.369 µM) with Enterobacter RO 154; 0.25 µg/mL (≈ 0.369 µM) in the test on Klebsiella RO 30; at most 0.125 µg/mL in test [1]; 1 µg/mL (≈ 1.48 µM) in the test on Serratia RL 72; 4 µg/mL (≈ 5.9 µM) with Pseudomonas RL 112. For the same compound, the MIC in the test with Citrobacter RL 49 came out at 0.25 µg/mL (≈ 0.369 µM).
For the compound `CC(C)(ON=C(C(=O)NC1C(=O)N2C(C(=O)O)=C(CSC(=O)C3CCN(C(=O)CN)CC3)C[S+]([O-])C12)c1csc(N)n1)C(=O)O` (centres unmarked) [compound 42673], the minimum inhibitory concentration (MIC) came to 0.25 µg/mL (≈ 0.365 µM) in the test with Escherichia coli 255; 0.25 µg/mL (≈ 0.365 µM) in test [2]; 0.0625 µg/mL (≈ 0.0911 µM) in [3]; 0.25 µg/mL (≈ 0.365 µM) in [4]; 0.25 µg/mL (≈ 0.365 µM) with Escherichia coli 255/L.7.
Take `Nc1nc(/C(=N/OC2(C(=O)O)CCC2)C(=O)NC2C(=O)N3C(C(=O)O)=C(COC(=O)C4(N)CCCC4)C[S+]([O-])C23)cs1` (centres unmarked) [42 210]: the MIC in the test with Escherichia coli SOL 90 came out at 1 µg/mL (≈ 1.6 µM); in the test on Enterobacter RO 154 it was 0.25 µg/mL (≈ 0.4 µM); in the test with Klebsiella RO 30 it was 0.5 µg/mL (≈ 0.8 µM); in test [1], 0.25 µg/mL (≈ 0.4 µM); against Serratia RL 72, 1 µg/mL (≈ 1.6 µM); in the test on Pseudomonas RL 112, 4 µg/mL (≈ 6.4 µM). The MIC in the test with Citrobacter RL 49 was found to be 0.5 µg/mL (≈ 0.8 µM).
As for `NC[C@H]1CC[C@H](C(=O)OCC2=C(C(=O)O)N3C(=O)C(NC(=O)/C(=N\OC4(C(=O)O)CCC4)c4csc(N)n4)C3[S+]([O-])C2)CC1` (some centres unmarked) [42 212], the MIC was at most 0.12 µg/mL in the test with Escherichia coli SOL 90; at most 0.12 µg/mL with Enterobacter RO 154; at most 0.12 µg/mL in the test with Klebsiella RO 30; at most 0.12 µg/mL in [1]; 0.25 µg/mL (≈ 0.383 µM) in the test with Serratia RL 72; 4 µg/mL (≈ 6.13 µM) in the test on Pseudomonas RL 112. Moreover, in the test on Citrobacter RL 49, the MIC was at most 0.12 µg/mL.
Consider `CC(C)[C@H](N)C(=O)OCC1=C(C(=O)O)N2C(=O)C(NC(=O)/C(=N\OC(C)(C)C(=O)O)c3csc(N)n3)C2[S+]([O-])C1` (some centres unmarked) [41 806], for which the MIC is 1 µg/mL (≈ 1.66 µM) in the test with Escherichia coli SOL 90; 8 µg/mL (≈ 13.3 µM) in the test with Enterobacter RO 154; 0.5 µg/mL (≈ 0.832 µM) in the test with Klebsiella RO 30; 0.5 µg/mL (≈ 0.832 µM) in [1]; 4 µg/mL (≈ 6.66 µM) in the test on Serratia RL 72; 8 µg/mL (≈ 13.3 µM) in the test on Pseudomonas RL 112. Besides, the minimum inhibitory concentration (MIC) in the test with Citrobacter RL 49 was determined as 1 µg/mL (≈ 1.66 µM).
On to `Cc1c(CN)cccc1C(=O)SCC1=C(C(=O)O)N2C(=O)C(NC(=O)C(=NOC3(C(=O)O)CCC3)c3csc(N)n3)C2[S+]([O-])C1` (centres unmarked) [compound 42536], for which the MIC with Escherichia coli SOL 90 was 0.5 µg/mL (≈ 0.739 µM); with Enterobacter RO 154, 0.5 µg/mL (≈ 0.739 µM); in the test with Klebsiella RO 30, 0.25 µg/mL (≈ 0.369 µM); in [1] it was at most 0.125 µg/mL; in the test with Serratia RL 72 it was 0.5 µg/mL (≈ 0.739 µM); against Pseudomonas RL 112, 8 µg/mL (≈ 11.8 µM). For the same compound, in the test with Citrobacter RL 49, the MIC is 0.25 µg/mL (≈ 0.369 µM).
In the case of `CC(C)NCc1ccc(C(=O)OCC2=C(C(=O)O)N3C(=O)C(NC(=O)/C(=N\OC(C)(C)C(=O)O)c4csc(N)n4)C3[S+]([O-])C2)cc1` (centres unmarked) [42 397], the MIC in the test with Escherichia coli SOL 90 was at most 0.125 µg/mL; in the test on Enterobacter RO 154, at most 0.125 µg/mL; in the test on Klebsiella RO 30, at most 0.125 µg/mL; in test [1], at most 0.125 µg/mL; with Serratia RL 72, 1 µg/mL (≈ 1.48 µM); against Pseudomonas RL 112, 8 µg/mL (≈ 11.8 µM). Moreover, in the test on Citrobacter RL 49, the MIC is at most 0.125 µg/mL.
For the compound `Nc1nc(/C(=N/OC2(C(=O)O)CCC2)C(=O)NC2C(=O)N3C(C(=O)O)=C(COC(=O)CC4CCNCC4)C[S+]([O-])C23)cs1` (centres unmarked) [42 473], the MIC in the test on Escherichia coli SOL 90 is 0.25 µg/mL (≈ 0.391 µM); in the test with Enterobacter RO 154 it was at most 0.125 µg/mL; with Klebsiella RO 30, at most 0.125 µg/mL; in test [1], at most 0.125 µg/mL; with Serratia RL 72, 0.25 µg/mL (≈ 0.391 µM); against Pseudomonas RL 112, 4 µg/mL (≈ 6.26 µM). Further, the minimum inhibitory concentration (MIC) in the test on Citrobacter RL 49 was at most 0.125 µg/mL.
As for `C[C@H](N)C(=O)OCC1=C(C(=O)O)N2C(=O)C(NC(=O)/C(=N\OC(C)(C)C(=O)O)c3csc(N)n3)C2[S+]([O-])C1` (some centres unmarked) [41 733], the MIC came to 2 µg/mL (≈ 3.49 µM) with Escherichia coli SOL 90; 1 µg/mL (≈ 1.75 µM) with Enterobacter RO 154; 1 µg/mL (≈ 1.75 µM) with Klebsiella RO 30; 0.5 µg/mL (≈ 0.873 µM) in [1]; 8 µg/mL (≈ 14 µM) in the test with Serratia RL 72; 8 µg/mL (≈ 14 µM) in the test with Pseudomonas RL 112. In addition, the MIC in the test on Citrobacter RL 49 stood at 2 µg/mL (≈ 3.49 µM).

(Values after US4656166A, “Antibiotic compounds derived from cephalosporins, process for their production and pharmaceutical compositions” (Sanofi, priority 1983, dated 1987).)
